Assay results published in patent US6469060B2, “Compositions based on iodopropynyl-and formaldehyde donor compounds and to their use as preservatives” (Air Liquide Sante (International), priority 1997, dated 2002).

Experiments:
[1] = Formaldehyde emission of N-formals, Dräger tubes (Example 9); format: physicochemical; details: pure N-formal, 1 g overnight in covered 400 ml beaker; for formaldehyde content: Dräger tubes (10 strokes)
Description: For this purpose, 1 g of each of the N-formals was left to stand overnight in a 400 ml beaker covered with para-film. On the following day, the formaldehyde content was then measured using Dräger tubes (10 strokes) as described in Example 1.
The formaldehyde content was 15 ppm (2 strokes 3 ppm) in 3,3′-methylenebis(tetrahydro-2H-1,3-oxazine) and 25 ppm (2 strokes 5 ppm) in Mar 71™. Preparations of 80% by weight of each N-formal and 20% by weight of 1,2-propylene glycol display a clearly different behavior. For example, the addition of 1,2-PLG to 3,3′-methylenebis(tetrahydro-2H-1,3-oxazine) leads to a reduction in the formaldehyde content to form 1.5 to 2.5 ppm (20 strokes) and the addition to Mar 71™ to a reduction to 10 ppm (5 strokes 5 ppm), the formaldehyde content being determined as described above for pure N-formals.

[2] = Stability and compatibility of IPBC with various N-formals, storage at +40° C. in clear glass (Example 2); format: physicochemical; details: discoloration and IPBC degradation
Description: The stability and compatibility of IPBC in compositions containing 3% by weight of IPBC, from 80 to 97% by weight of N-formals and […] by weight of 1,2-PLG were determined as a function of the storage time after the solutions had been stored at a temperature of +40° C. in clear glass.
The initially clear, colorless to slightly yellowish solutions became discoloured to varying degrees after storage for three months at a temperature of +40° C. Only the compositions based on IPBC and Mar 71 retained their clear, slightly yellowish appearance.
A summary of the development of the IPBC content, determined by means of HPLC (IPBC starting content 3% by weight) in the compositions investigated as a function of the storage period, is given in Table IV.

formaldehyde content, reading at 2 strokes [1] [ppm]	formaldehyde content [1] [ppm]	Compatibility with IPBC [2]	SMILES
3	15		C1COCN(CN2CCCOC2)C1 [3,3′-methylenebis(tetrahydro-2H-1,3-oxazine), reference compound]
		incompatible	OCCN1CN(CCO)CN(CCO)C1 [Grotan BK TM, 1,3,5-tris(hydroxyethyl)hexahydrotriazine]
5	25		CC1CN(CN2COC(C)C2)CO1 (centres unmarked) [Mar 71™, 3,3′-methylenebis(5-methyloxazolidine)]
